pIC50: −log10 of the molar value.
Experiments:
EGFR [1] = target: T1, EGFR (Homo sapiens, UniProt P00533); assay: cell EGF assay; format: cell-based
T1 construct: A431 cell lysate (SUGEN, Inc.); host or cells: A431
Experimental: Several of the assays described herein are performed in an ELISA (Enzyme-Linked Immunosorbent Sandwich Assay) format (Voller, et al., 1980, “Enzyme-Linked Immunosorbent Assay,” Manual of Clinical Immunology, 2d ed., Rose and Friedman, Am. Soc. Of Microbiology, Washington, D.C., pp. 359-371). The general procedure is as follows: a compound is introduced to cells expressing the test kinase, either naturally or recombinantly, for a selected period of time after which, if the test kinase is a receptor, a ligand known to activate the receptor is added. The cells are lysed and the lysate is transferred to the wells of an ELISA plate previously coated with a specific antibody recognizing the substrate of the enzymatic phosphorylation reaction. Non-substrate components of the cell lysate are washed away and the amount of phosphorylation on the substrate is detected with an antibody specifically recognizing phosphotyrosine compared with control cells that were not contacted with a test compound.

EGFR [2] = target: T1, EGFR; assay: EGFR bioassay (bio EGF); format: biochemical
PDGFR-β = target: T2, PDGFR-β (Homo sapiens, UniProt P09619); assay: PDGFR bioassay (bio PDGF); format: biochemical
T2 construct: host or cells: NIH 3T3
T2 sequence (P09619 33-1106): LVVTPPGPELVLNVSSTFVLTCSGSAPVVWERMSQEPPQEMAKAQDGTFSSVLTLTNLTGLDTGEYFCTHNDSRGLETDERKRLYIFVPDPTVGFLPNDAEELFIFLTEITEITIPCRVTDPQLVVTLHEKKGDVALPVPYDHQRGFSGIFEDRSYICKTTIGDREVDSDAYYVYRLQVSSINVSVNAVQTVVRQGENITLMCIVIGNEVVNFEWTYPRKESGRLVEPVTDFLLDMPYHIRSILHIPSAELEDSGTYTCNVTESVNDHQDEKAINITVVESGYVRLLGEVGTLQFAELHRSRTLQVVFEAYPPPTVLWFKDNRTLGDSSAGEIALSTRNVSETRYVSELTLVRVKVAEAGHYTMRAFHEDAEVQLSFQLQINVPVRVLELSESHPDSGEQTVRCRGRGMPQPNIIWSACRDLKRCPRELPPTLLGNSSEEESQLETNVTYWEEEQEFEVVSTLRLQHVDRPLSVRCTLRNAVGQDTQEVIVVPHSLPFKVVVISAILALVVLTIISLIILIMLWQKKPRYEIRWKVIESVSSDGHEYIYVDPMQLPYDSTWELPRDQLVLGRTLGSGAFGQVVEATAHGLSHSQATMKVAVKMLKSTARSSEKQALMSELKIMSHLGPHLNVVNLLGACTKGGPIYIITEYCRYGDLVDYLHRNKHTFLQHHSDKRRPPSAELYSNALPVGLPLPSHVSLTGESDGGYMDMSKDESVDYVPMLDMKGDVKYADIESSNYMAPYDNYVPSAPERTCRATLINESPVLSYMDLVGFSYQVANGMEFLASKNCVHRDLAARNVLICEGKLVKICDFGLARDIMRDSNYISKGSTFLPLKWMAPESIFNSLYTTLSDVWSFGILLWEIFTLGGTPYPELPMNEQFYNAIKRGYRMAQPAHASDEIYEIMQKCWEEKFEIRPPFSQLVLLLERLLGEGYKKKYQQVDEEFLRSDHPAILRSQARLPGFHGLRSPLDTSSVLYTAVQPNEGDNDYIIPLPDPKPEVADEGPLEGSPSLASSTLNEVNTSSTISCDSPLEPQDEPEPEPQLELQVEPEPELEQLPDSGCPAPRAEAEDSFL

GST-Flk1 = target: T3, GST-Flk1 (Mus musculus, UniProt P35918); assay: GST-FLK-1 bioassay (bio flkGST); format: biochemical
T3 construct: GST-Flk1cd purified from sf9 recombinant baculovirus transformation; host or cells: Sf9 (baculovirus)
T3 sequence (P35918 784-1345 limits assumed): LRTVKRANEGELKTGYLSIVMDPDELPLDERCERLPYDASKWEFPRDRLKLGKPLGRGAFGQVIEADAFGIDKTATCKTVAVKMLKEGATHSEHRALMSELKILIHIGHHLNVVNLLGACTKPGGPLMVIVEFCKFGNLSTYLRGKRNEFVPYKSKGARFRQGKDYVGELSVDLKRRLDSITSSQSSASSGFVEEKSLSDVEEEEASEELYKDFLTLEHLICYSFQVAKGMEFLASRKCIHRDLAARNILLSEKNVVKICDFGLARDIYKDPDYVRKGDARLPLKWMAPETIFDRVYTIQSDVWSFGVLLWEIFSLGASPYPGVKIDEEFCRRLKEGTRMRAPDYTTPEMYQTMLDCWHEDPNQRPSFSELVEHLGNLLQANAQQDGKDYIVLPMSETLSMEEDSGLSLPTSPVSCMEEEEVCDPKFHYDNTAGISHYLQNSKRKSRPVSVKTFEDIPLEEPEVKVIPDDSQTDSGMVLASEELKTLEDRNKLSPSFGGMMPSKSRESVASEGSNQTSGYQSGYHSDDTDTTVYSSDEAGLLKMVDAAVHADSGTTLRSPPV

HER-2 kinase = target: T4, HER-2 kinase (Homo sapiens, UniProt P04626); assay: Cellular HER-2 kinase assay; format: cell-based; settings: read-out: Her2 Kinase IC50
T4 construct: Use EGFr/HER-2 chimera/3T3-C7 cell line for this assay; It is expressed in mouse NIH 3T3 clone C7 cells; P00533 (Epidermal growth factor receptor)
T4 sequence (P04626 720-987 limits assumed): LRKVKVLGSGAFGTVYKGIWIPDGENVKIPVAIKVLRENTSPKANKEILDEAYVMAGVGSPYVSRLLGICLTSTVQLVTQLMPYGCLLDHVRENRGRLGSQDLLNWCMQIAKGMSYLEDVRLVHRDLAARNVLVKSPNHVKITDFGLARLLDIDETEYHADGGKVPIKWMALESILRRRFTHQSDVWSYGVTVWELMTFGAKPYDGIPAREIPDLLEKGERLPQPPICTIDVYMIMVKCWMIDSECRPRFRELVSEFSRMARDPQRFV

T1 sequence (P00533 25-1210): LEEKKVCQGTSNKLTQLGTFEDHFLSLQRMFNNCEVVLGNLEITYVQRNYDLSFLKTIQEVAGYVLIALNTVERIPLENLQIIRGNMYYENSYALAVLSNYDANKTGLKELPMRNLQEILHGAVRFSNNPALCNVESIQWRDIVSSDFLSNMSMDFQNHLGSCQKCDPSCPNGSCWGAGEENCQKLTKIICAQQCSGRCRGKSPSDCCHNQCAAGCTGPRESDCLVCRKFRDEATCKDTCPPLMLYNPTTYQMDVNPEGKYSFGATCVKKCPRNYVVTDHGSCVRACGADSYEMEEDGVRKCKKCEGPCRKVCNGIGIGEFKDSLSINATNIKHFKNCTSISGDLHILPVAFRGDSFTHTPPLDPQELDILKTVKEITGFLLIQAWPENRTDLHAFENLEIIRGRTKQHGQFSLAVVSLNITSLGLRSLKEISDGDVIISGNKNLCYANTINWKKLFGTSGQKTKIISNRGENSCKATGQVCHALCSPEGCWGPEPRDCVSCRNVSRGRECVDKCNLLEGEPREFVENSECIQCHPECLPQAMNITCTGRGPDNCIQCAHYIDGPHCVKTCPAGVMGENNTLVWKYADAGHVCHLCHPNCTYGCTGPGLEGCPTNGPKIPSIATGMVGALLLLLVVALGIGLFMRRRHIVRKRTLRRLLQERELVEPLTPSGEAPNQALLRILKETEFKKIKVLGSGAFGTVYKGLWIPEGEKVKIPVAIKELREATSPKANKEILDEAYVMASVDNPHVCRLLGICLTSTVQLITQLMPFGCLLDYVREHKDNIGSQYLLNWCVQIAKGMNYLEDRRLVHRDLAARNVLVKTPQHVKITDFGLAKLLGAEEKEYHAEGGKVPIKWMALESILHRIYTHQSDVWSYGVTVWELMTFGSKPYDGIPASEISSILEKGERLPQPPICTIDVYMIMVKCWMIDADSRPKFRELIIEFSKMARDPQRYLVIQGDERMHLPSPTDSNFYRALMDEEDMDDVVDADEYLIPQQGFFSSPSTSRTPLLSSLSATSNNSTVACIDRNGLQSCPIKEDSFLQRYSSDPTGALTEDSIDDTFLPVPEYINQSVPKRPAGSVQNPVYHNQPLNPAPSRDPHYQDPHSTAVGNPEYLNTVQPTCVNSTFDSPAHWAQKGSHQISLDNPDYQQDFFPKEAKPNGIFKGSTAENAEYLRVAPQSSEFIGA

| Structure (SMILES) | pIC50 (EGFR [1]) | pIC50 (EGFR [2]) | pIC50 (PDGFR-β) | pIC50 (GST-Flk1) | pIC50 (HER-2 kinase) |
| --- | --- | --- | --- | --- | --- |
| CCN(CC)CCNC(=O)c1ccc(/C=C2\C(=O)Nc3ccc(Br)cc32)[nH]1 [Example 8, 5-(5-Bromo-2-oxo-1,2-dihydroindol-3-ylidenemethyl)-1H-pyrrole-2-carboxylic acid (2-diethylaminoethyl)amide] | 4.70 | 4.29 | < 4.00 | 4.92 | 5.26 |
| CCN(CC)CCCNC(=O)c1cc(C)c(/C=C2\C(=O)Nc3ccc(Br)cc32)[nH]1 [Example 7, 5-(5-Bromo-2-oxo-1,2-dihydroindol-3-ylidenemethyl)-4-methyl-1H-pyrrole-2-carboxylic acid (3-diethylaminopropyl)amide] | 5.01 | 5.29 | < 4.00 | 5.11 | 5.37 |
| CCN(CC)CCNC(=O)c1c(C(C)C)[nH]c(/C=C2\C(=O)Nc3ccc(Br)cc32)c1-c1ccccc1 [Example 39, 5-(5-Bromo-2-oxo-1,2-dihydroindol-3-ylidenemethyl)-2-isopropyl-4-phenyl-1H-pyrrole-3-carboxylic acid (2-diethylaminoethyl)amide] | 4.84 | 5.44 | 5.33 | 5.47 | 5.45 |
| CCN(CC)CCCNC(=O)c1c(C(C)C)[nH]c(/C=C2\C(=O)Nc3ccc(Br)cc32)c1-c1ccccc1 [Example 37, 5-(5-Bromo-2-oxo-1,2-dihydroindol-3-ylidenemethyl)-2-isopropyl-4-phenyl-1H-pyrrole-3-carboxylic acid (3-diethylaminopropyl)amide] | 5.01 | 4.97 | 5.51 | 6.66 | 5.85 |
| CCN(CC)CCNC(=O)c1ccc(/C=C2\C(=O)Nc3cc(-c4ccccc4)ccc32)[nH]1 [Example 9, 5-(2-Oxo-6-phenyl-1,2-dihydroindol-3-ylidenemethyl)-1H-pyrrole-2-carboxylic acid (2-diethylaminoethyl)amide] | < 4.00 | < 4.00 | < 4.00 | 6.02 | 4.79 |
| Cc1[nH]c(/C=C2\C(=O)Nc3ccc(Br)cc32)c(-c2ccccc2)c1C(=O)NCCN1CCCC1 [Example 42, 5-(5-Bromo-2-oxo-1,2-dihydroindol-3-ylidenemethyl)-2-methyl-4-phenyl-1H-pyrrole-3-carboxylic acid (2-pyrrolidin-1-yl-ethyl)amide] | 4.13 | 4.92 | 6.92 | 7.00 | 4.69 |
| CCN(CC)CCN(C)C(=O)c1ccc(/C=C2\C(=O)Nc3cc(-c4ccccc4)ccc32)[nH]1 [Example 11, 5-(2-Oxo-6-phenyl-1,2-dihydroindol-3-ylidenemethyl)-1H-pyrrole-2-carboxylic acid (2-diethylaminoethyl)methylamide] | < 4.00 | < 4.00 | < 4.00 | 5.01 | < 4.00 |
| COc1ccccc1-c1ccc2c(c1)NC(=O)/C2=C\c1[nH]c(C)c(C(=O)NCCN2CCCC2)c1-c1ccccc1 [Example 43, 5-[6-(2-Methoxy-phenyl)-2-oxo-1,2-dihydroindol-3-ylidenemethyl]-2-methyl-4-phenyl-1H-pyrrole-3-carboxylic acid (2-pyrrolidin-1-yl-ethyl)amide] | 4.43 |  | 5.08 | 5.95 | 4.27 |
| CCN(CC)CCN(C)C(=O)c1ccc(/C=C2\C(=O)Nc3ccc(Br)cc32)[nH]1 [Example 10, 5-(5-Bromo-2-oxo-1,2-dihydroindol-3-ylidenemethyl)-1H-pyrrole-2-carboxylic acid (2-diethylaminoethyl)methylamide] | 4.80 | 4.03 | < 4.00 | 5.24 | 5.09 |

Second part, the compound after the results:

| pIC50 (EGFR [1]) | pIC50 (EGFR [2]) | pIC50 (PDGFR-β) | pIC50 (GST-Flk1) | pIC50 (HER-2 kinase) | Structure (SMILES) |
| --- | --- | --- | --- | --- | --- |
| 4.13 | < 4.00 | > 7.30 | 6.43 | 4.80 | Cc1[nH]c(/C=C2\C(=O)Nc3cc(-c4cccnc4)ccc32)c(C)c1C(=O)NCCCN(C)C [Example 65, 2,4-Dimethyl-5-(2-oxo-6-pyridin-3-yl-1,2-dihydroindol-3-ylidenemethyl)-1H-pyrrole-3-carboxylic acid (3-dimethylamino-propyl)amide] |
| 4.70 | 4.50 | 4.61 | 6.41 | 5.59 | CCN(CC)CCCNC(=O)c1c(C)[nH]c(/C=C2\C(=O)Nc3ccc(-c4ccccc4)cc32)c1C [Example 67, 2,4-Dimethyl-5-(2-oxo-5-phenyl-1,2-dihydroindol-3-ylidenemethyl)-1H-pyrrole-3-carboxylic acid (3-diethylaminopropyl)amide] |
| 4.40 | < 4.00 | 4.98 | 5.22 | 5.02 | CCN(CC)CCCNC(=O)c1c(C(C)C)[nH]c(/C=C2\C(=O)Nc3ccc(Br)cc32)c1C(C)C [Example 72, 5-(5-Bromo-2-oxo-1,2-dihydroindol-3-ylidenemethyl)-2,4-diisopropyl-1H-pyrrole-3-carboxylic acid (3-diethylaminopropyl)amide] |
| 5.01 | 5.07 | 4.32 | 5.11 | 4.80 | CN(C)CCNC(=O)c1[nH]c(/C=C2\C(=O)Nc3ccc(Br)cc32)c2c1CCCC2 [Example 89, 3-(5-Bromo-2-oxo-1,2-dihydro-indol-3-ylidenemethyl)-4,5,6,7-tetrahydro-2H-isoindole-1-carboxylic acid (2-dimethylamino-ethyl)-amide] |
| 4.17 | 4.68 | 7.70 | > 7.30 | 5.16 | Cc1[nH]c(/C=C2\C(=O)Nc3ccc(Br)cc32)c(-c2ccccc2)c1C(=O)NCCN(C)C [Example 44, 5-(5-Bromo-2-oxo-1,2-dihydroindol-3-ylidenemethyl)-2-methyl-4-phenyl-1H-pyrrole-3-carboxylic acid (2-dimethylamino-ethyl)amide] |
| 4.44 | 5.22 | 6.28 | 6.57 | 4.11 | COc1cccc(-c2ccc3c(c2)NC(=O)/C3=C\c2[nH]c(C)c(C(=O)NCCN(C)C)c2C)c1 [Example 55, 5-[6-(3-Methoxy-phenyl)-2-oxo-1,2-dihydroindol-3-ylidenemethyl]-2,4-dimethyl-1H-pyrrole-3-carboxylic acid (2-dimethylamino-ethyl)amide] |
| 5.00 | < 4.00 | 5.10 | 7.22 | 5.16 | Cc1[nH]c(/C=C2\C(=O)Nc3ccc(-c4ccccc4)cc32)c(C)c1C(=O)NCCN1CCCC1 [Example 57, 2,4-Dimethyl-5-(2-oxo-5-phenyl-1,2-dihydroindol-3-ylidenemethyl)-1H-pyrrole-3-carboxylic acid (2-pyrrolidin-1-yl-ethyl)amide] |
| 4.40 | < 4.00 | 4.85 | 5.23 | 5.07 | CC(C)c1[nH]c(/C=C2\C(=O)Nc3ccc(Br)cc32)c(C(C)C)c1C(=O)NCCCN1CCCC1 [Example 73, 5-(5-Bromo-2-oxo-1,2-dihydroindol-3-ylidenemethyl)-2,4-diisopropyl-1H-pyrrole-3-carboxylic acid (3-pyrrolidin-1-ylpropyl)amide] |
| < 4.00 | < 4.00 | 5.21 | 4.51 | < 4.00 | CCOC(=O)c1c(C)[nH]c(/C=C2\C(=O)Nc3ccc(Br)cc32)c1-c1ccccc1 [Example 46, 5-(5-Bromo-2-oxo-1,2-dihydroindol-3-ylidenemethyl)-2-methyl-4-phenyl-1H-pyrrole-3-carboxylic acid ethyl ester] |
| 5.00 | < 4.00 | 5.50 | 5.63 | 5.15 | CCN(CC)CCNC(=O)c1c(C)[nH]c(/C=C2\C(=O)Nc3ccc(-c4ccccc4)cc32)c1C [Example 56, 2,4-Dimethyl-5-(2-oxo-5-phenyl-1,2-dihydroindol-3-ylidenemethyl)-1H-pyrrole-3-carboxylic acid (2-diethylaminoethyl)amide] |
| < 4.00 | 4.52 | > 6.11 | 6.26 | < 4.00 | Cc1[nH]c(/C=C2\C(=O)Nc3cc(-c4cccnc4)ccc32)c(C)c1C(=O)NCCN1CCCC1 [Example 64, 2,4-Dimethyl-5-(2-oxo-6-pyridin-3-yl-1,2-dihydroindol-3-ylidenemethyl)-1H-pyrrole-3-carboxylic acid (2-pyrrolidin-1-yl-ethyl)amide] |
| 4.63 |  | 7.52 | 5.94 | 4.47 | CCN(CC)CCCNC(=O)c1c(C)[nH]c(/C=C2\C(=O)Nc3cc(-c4ccccc4)ccc32)c1C [Example 68, 2,4-Dimethyl-5-(2-oxo-6-phenyl-1,2-dihydroindol-3-ylidenemethyl)-1H-pyrrole-3-carboxylic acid (3-diethylaminopropyl)amide] |

— patent US6573293B2, “Pyrrole substituted 2-indolinone protein kinase inhibitors” (Sugen, Inc., priority 2000, dated 2003)
